≈ marks a conversion by molar mass, not a printed value. Calls of active or inactive are those of the source. The rule behind the calls is not given here.
Assays:
[1] = system: Escherichia coli; test: Antibacterial activity against Escherichia coli CCUG deficient in potA gene; assay type: functional, organism-based
[2] = system: Escherichia coli; test: Antibacterial activity against Escherichia coli CCUG deficient in potB gene; assay type: functional, organism-based
[3] = system: Bacillus spizizenii; test: Antibacterial activity against Bacillus subtilis ATCC 6633 after 18 hrs by microdilution broth method; assay type: functional; details: ATCC 6633, 18 h
[4] = system: Enterococcus faecalis; test: Antibacterial activity against Enterococcus faecalis ATCC 19433 after 18 hrs by microdilution broth method; assay type: functional; details: ATCC 19433, 18 h
[5] = system: Staphylococcus aureus; test: Antibacterial activity against Staphylococcus aureus ATCC 25923 after 18 hrs by microdilution broth method; assay type: functional; details: ATCC 25923, 18 h
[6] = system: Streptococcus pyogenes; test: Antibacterial activity against Streptococcus pyogenes ATCC 12344 after 18 hrs by microdilution broth method; assay type: functional; details: ATCC 12344, 18 h
[7] = system: Acinetobacter baumannii; test: Antibacterial activity against Acinetobacter baumannii ATCC 17978 after 18 hrs by microdilution broth method; assay type: functional; details: ATCC 17978, 18 h
[8] = system: Klebsiella pneumoniae; test: Antibacterial activity against Klebsiella pneumoniae ATCC […] after 18 hrs by microdilution broth method; assay type: functional
[9] = system: Pseudomonas aeruginosa; test: Antibacterial activity against Pseudomonas aeruginosa ATCC 27853 after 18 hrs by microdilution broth method; assay type: functional; details: ATCC 27853, 18 h
[10] = system: Acinetobacter baumannii; test: Antibacterial activity against Acinetobacter baumannii isolate AC-54/97 after 18 hrs by microdilution broth method; assay type: functional; details: isolate AC-54/97, 18 h
[11] = system: Burkholderia cepacia; test: Antibacterial activity against Burkholderia cepacia isolate SI-R2 after 18 hrs by microdilution broth method; assay type: functional; details: isolate SI-R2, 18 h
[12] = system: Enterobacter cloacae; test: Antibacterial activity against Enterobacter cloacae isolate VA-417/02 after 18 hrs by microdilution broth method; assay type: functional; details: isolate VA-417/02, 18 h
[13] = system: Klebsiella pneumoniae; test: Antibacterial activity against Klebsiella pneumoniae isolate SI-081 after 18 hrs by microdilution broth method; assay type: functional; details: isolate SI-081, 18 h
[14] = system: Stenotrophomonas maltophilia; test: Antibacterial activity against Stenotrophomonas maltophilia isolate 634/08 after 18 hrs by microdilution broth method; assay type: functional; details: isolate 634/08, 18 h
[15] = system: Escherichia coli; test: Bactericidal activity against Escherichia coli CCUG assessed as log reduction in CFU at 2 times MIC concentration after 1 hr by time kill assay; assay type: functional
[16] = system: Escherichia coli; test: Antibacterial activity against Escherichia coli MG1655 cultured in MHB supplemented with 10% human serum assessed as reduction in bacterial growth at 1 ug/ml after 24 hrs; assay type: functional, organism-based; details: K-12 substr. MG1655
[17] = system: Escherichia coli; test: Ratio of MIC for Escherichia coli MG1655 cultured in MHB supplemented with 10% human serum after 24 hrs to MIC for Escherichia coli MG1655 cultured in absence of 10% human serum; assay type: functional, K-12 substr. MG1655
[18] = system: Escherichia coli; test: Antibacterial activity against Escherichia coli MG1655 cultured in MHB supplemented with 5 to 40 mg/ml at 1 to 2 ug/ml after 24 hrs; assay type: functional, organism-based; details: K-12 substr. MG1655
[19] = system: Escherichia coli; test: Disruption of inner membrane integrity in Escherichia coli MG1655 assessed as induction of […] conversion at 256 ug/ml measured at 10 mins intervals for 1 hr; assay type: functional, organism-based; details: K-12 substr. MG1655
[20] = system: Pseudomonas aeruginosa; test: Disruption of inner membrane integrity in Pseudomonas aeruginosa PAO1 ATCC 15692 co-expressing pMP2200::PrrnB plasmid assessed as induction of OPNG conversion at 256 ug/ml measured at 10 mins intervals for 1 hr; assay type: functional, organism-based
[21] = system: Acinetobacter baumannii; test: Disruption of inner membrane integrity in Acinetobacter baumannii ATCC 19606 co-expressing pMP2200::PrrnB plasmid assessed as induction of […] conversion at 256 ug/ml measured at 10 mins intervals for 1 hr; assay type: functional, organism-based; details: ATCC 19606 = CIP 70.34 = JCM 6841
[22] = system: Escherichia coli; test: Disruption of Escherichia coli MG1655 ATCC 47076 outer membrane integrity assessed as induction of NPN uptake after 30 mins by NPN fluorescence-based assay; assay type: functional, organism-based; details: K-12 substr. MG1655 ATCC 47076
[23] = system: Pseudomonas aeruginosa; test: Disruption of Pseudomonas aeruginosa PAO1 ATCC 15692 outer membrane integrity assessed as induction of NPN uptake after 30 mins by NPN fluorescence-based assay; assay type: functional, organism-based
[24] = system: Acinetobacter baumannii; test: Disruption of Acinetobacter baumannii ATCC 19606 outer membrane integrity assessed as induction of NPN uptake after 30 mins by NPN fluorescence-based assay; assay type: functional, organism-based; details: ATCC 19606 = CIP 70.34 = JCM 6841
[25] = system: Escherichia coli; test: Antibiofilm activity against Escherichia coli MG1655 ATCC 47076 at half MIC concentration after 24 hrs by crystal violet-based assay; assay type: functional, organism-based; details: K-12 substr. MG1655 ATCC 47076
[26] = system: Pseudomonas aeruginosa; test: Antibiofilm activity against Pseudomonas aeruginosa PAO1 ATCC 15692 at half MIC concentration after 24 hrs by crystal violet-based assay; assay type: functional, organism-based
[27] = system: Acinetobacter baumannii; test: Antibiofilm activity against Acinetobacter baumannii ATCC 19606 at half MIC concentration after 24 hrs by crystal violet-based assay; assay type: functional, organism-based; details: ATCC 19606 = CIP 70.34 = JCM 6841
[28] = system: Escherichia coli; test: Antibiofilm activity against Escherichia coli MG1655 ATCC 47076 assessed as effect on biofilm 3D structures at half MIC concentration after 24 hrs by AO-staining based confocal microscopy; assay type: functional, organism-based; details: K-12 substr. MG1655 ATCC 47076
[29] = system: Pseudomonas aeruginosa; test: Antibiofilm activity against Pseudomonas aeruginosa PAO1 ATCC 15692 assessed as effect on biofilm 3D structures at half MIC concentration after 24 hrs by AO-staining based confocal microscopy; assay type: functional, organism-based
[30] = system: Acinetobacter baumannii; test: Antibiofilm activity against Acinetobacter baumannii ATCC 19606 assessed as effect on biofilm 3D structures at half MIC concentration after 24 hrs by AO-staining based confocal microscopy; assay type: functional, organism-based; details: ATCC 19606 = CIP 70.34 = JCM 6841
[31] = Hemolytic activity against human erythrocytes assessed as induction of hemolysis at 64 ug/ml after 30 mins; assay type: cell-based, Erythrocyte; details: read-out: Activity
[32] = system: HeLa; test: Cytotoxicity against human HeLa cells assessed as reduction in cell viability at 16 ug/ml after 24 hrs by celltox green-based assay
[33] = system: HeLa; test: Cytotoxicity against human HeLa cells assessed as reduction in cell viability at 256 ug/ml after 24 hrs by celltox green-based assay relative to control
[34] = Metabolic stability in human liver microsomes at 50 uM after 60 mins in presence of NADPH by LC-UV-MS analysis; assay type: ADME, Microsome; details: read-out: Stability
[35] = 1-Octanol/Tris buffer distribution coefficient, log D of the compound at pH 7.4 by HPLC analysis; assay type: physicochemical
[36] = molecular target: T1, Albumin (Homo sapiens, UniProt P02768); test: Binding affinity to human serum albumin assessed as dissociation constant after 30 mins by fluorescence-based assay; assay type: ADME
T1 sequence (P02768 whole entry): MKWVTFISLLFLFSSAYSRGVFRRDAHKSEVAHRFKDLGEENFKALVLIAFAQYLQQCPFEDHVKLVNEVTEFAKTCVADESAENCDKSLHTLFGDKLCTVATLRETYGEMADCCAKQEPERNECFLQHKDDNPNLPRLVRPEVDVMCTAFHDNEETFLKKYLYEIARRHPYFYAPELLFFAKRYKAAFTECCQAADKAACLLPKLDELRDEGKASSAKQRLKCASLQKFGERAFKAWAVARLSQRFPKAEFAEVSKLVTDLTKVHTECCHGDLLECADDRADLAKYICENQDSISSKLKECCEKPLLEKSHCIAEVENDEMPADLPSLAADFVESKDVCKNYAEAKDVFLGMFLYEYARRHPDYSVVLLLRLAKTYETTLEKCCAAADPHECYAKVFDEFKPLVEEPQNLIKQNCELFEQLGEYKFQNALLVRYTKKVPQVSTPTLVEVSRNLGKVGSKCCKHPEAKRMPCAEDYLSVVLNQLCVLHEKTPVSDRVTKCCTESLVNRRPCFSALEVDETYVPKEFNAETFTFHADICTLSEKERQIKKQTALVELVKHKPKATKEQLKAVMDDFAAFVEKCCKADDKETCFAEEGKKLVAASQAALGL

[37] = molecular target: T1, Albumin; test: Binding affinity to human serum albumin assessed as Bmax after 30 mins by fluorescence-based assay; assay type: ADME; details: isolated protein, 0.5 h
[38] = Binding affinity to AGP (unknown origin) assessed as dissociation constant after 30 mins by fluorescence-based assay; assay type: ADME, Homo sapiens
[39] = Binding affinity to AGP (unknown origin) assessed as Bmax after 30 mins by fluorescence-based assay; assay type: ADME; details: human, isolated protein, 0.5 h
[40] = Apparent permeability of the compound after 5 hrs by PAMPA; assay type: ADME
[41] = system: Escherichia coli; test: Antibacterial activity against Escherichia coli CCUG deficient in potD gene; assay type: functional, organism-based
[42] = system: Escherichia coli; test: Antibacterial activity against Escherichia coli CCUG deficient in potE gene; assay type: functional, organism-based
[43] = system: Escherichia coli; test: Antibacterial activity against Escherichia coli CCUG deficient in potF gene; assay type: functional, organism-based
[44] = system: Escherichia coli; test: Antibacterial activity against Escherichia coli CCUG deficient in potG gene; assay type: functional, organism-based
[45] = system: Escherichia coli; test: Antibacterial activity against Escherichia coli CCUG deficient in potH gene; assay type: functional, organism-based
[46] = system: Escherichia coli; test: Antibacterial activity against Escherichia coli CCUG deficient in potI gene; assay type: functional, organism-based
[47] = system: Escherichia coli; test: Antibacterial activity against Escherichia coli CCUG assessed as inhibition of microbial growth at >32 ug/ml measured up to 48 hrs; assay type: functional, organism-based
[48] = in vitro; details: human, Caco-2
Description: Apparent permeability across apical to basolateral side in human Caco2 cells at 10 uM after 120 mins by LC-MS/MS analysis

[49] = in vitro; details: human, Caco-2; remark: listed apart in the source
Description: Efflux ratio of apparent permeability in human Caco2 cells at 10 uM after 120 mins by LC-MS/MS analysis

[50] = system: Escherichia coli; test: Antibacterial activity against Escherichia coli CCUG after 18 hrs by microdilution broth method
[51] = system: Escherichia coli; test: Induction of cytoplasmic membrane depolarization in Escherichia coli at 16 ug/ml by DiSC3-5-fluorescence based assay

Question: What does the source list for `N=C(N)NCCCCCCCCN(CCCCCCCCNC(=N)NCC1CC1)C(=O)N(CCCCCCCCNC(=N)N)CCCCCCCCNC(=N)NCC1CC1`?
Answer: Activity [1]: Active; Activity [2]: Active; MIC [3]: 0.5 µg/mL (≈ 0.591 µM); MIC [4]: 2 µg/mL (≈ 2.37 µM); MIC [5]: 2 µg/mL (≈ 2.37 µM); MIC [6]: 1 µg/mL (≈ 1.18 µM); MIC [7]: 8 µg/mL (≈ 9.46 µM); MIC [8]: 2 µg/mL (≈ 2.37 µM); MIC [9]: 8 µg/mL (≈ 9.46 µM); MIC [10]: 2 µg/mL (≈ 2.37 µM); MIC [11]: 16 µg/mL (≈ 18.9 µM); MIC [12]: 1 µg/mL (≈ 1.18 µM); MIC [13]: 2 µg/mL (≈ 2.37 µM); MIC [14]: 16 µg/mL (≈ 18.9 µM); Activity [15]: >=4 log10CFU/ml; growth inhibition (GI) [16]: inactive; Ratio [17]: 2; Activity [18]: Active; Activity [19]: inactive; Activity [20]: inactive; Activity [21]: inactive; Activity [22]: Dose-dependent effect; Activity [23]: Dose-dependent effect; Activity [24]: Dose-dependent effect; Activity [25]: inactive; Activity [26]: inactive; Activity [27]: inactive; Activity [28]: inactive; Activity [29]: inactive; Activity [30]: inactive; hemolysis at 0.5 h, 64 ug/ml [31]: 0 to 7%; Activity [32]: Non-Toxic; Activity [33]: <= 60%; remaining at 1 h, 50 µM [34]: > 99%; logD [35]: -0.79; Kd [36]: 23.3 µM; Bmax [37]: 14%; Kd [38]: 0.11 µM; Bmax [39]: 30.2%; Papp at 5 h [40]: 1.6 ×10⁻⁶ cm/s; Activity [41]: Active; Activity [42]: Active; Activity [43]: Active; Activity [44]: Active; Activity [45]: Active; Activity [46]: Active; Activity [47]: Active; Papp A→B at 2 h, 10 µM [48]: 0.19 ×10⁻⁶ cm/s; efflux ratio at 2 h, 10 µM [49]: 0.65; MIC [50]: 2 µg/mL (≈ 2.37 µM); Activity [51]: inactive

Reference: ChEMBL document CHEMBL4308851, “Alkyl-guanidine Compounds as Potent Broad-Spectrum Antibacterial Agents: Chemical Library Extension and Biological Characterization” (J Med Chem, 2018)
